Reference: ChEMBL document CHEMBL6078711, “Design, synthesis, and biological evaluation of steroidal indole derivatives as membrane-targeting antibacterial candidates” (Eur J Med Chem, 2025)
In brackets after ≈: the same amount, converted by molar mass. Activity calls are given as the source filed them. The rule behind the calls is not given here.

Legend:
Staphylococcus aureus [1] = test: Antibacterial activity against Methicillin-resistant Staphylococcus aureus CGMCC1.8721 infected in mouse skin infection model assessed as reduction in bacterial clones at 5 mg/kg, sc; assay type: functional, organism-based
Staphylococcus aureus [2] = test: Antibacterial activity against Methicillin-resistant Staphylococcus aureus CGMCC1.8721 infected in mouse skin infection model assessed as reduction in bacterial load at 5 mg/kg, sc; assay type: functional; design: scale not given: the % may be the effect or the level left
Staphylococcus aureus [3] = test: Antibacterial activity against Staphylococcus aureus CGMCC1.8721 assessed as reduction in bacterial growth in presence of phosphatidylglycerol; assay type: functional
Staphylococcus aureus [4] = test: Antibacterial activity against methicillin-resistant Staphylococcus aureus ATCC 43300 assessed as reduction in bacterial growth; assay type: functional
Staphylococcus aureus [5] = test: Antibacterial activity against Staphylococcus aureus CGMCC1.8721 assessed as reduction in bacterial growth; assay type: functional
Staphylococcus aureus [6] = test: Antibacterial activity against methicillin-resistant Staphylococcus aureus ATCC 33591 assessed as reduction in bacterial growth; assay type: functional
Staphylococcus aureus [7] = test: Antibacterial activity against methicillin-resistant Staphylococcus aureus CGMCC 1.12409 assessed as reduction in bacterial growth; assay type: functional
Staphylococcus aureus [8] = test: Bactericidal activity against methicillin-resistant Staphylococcus aureus ATCC 43300 assessed as reduction in bacterial growth; assay type: functional
Staphylococcus aureus [9] = test: Bactericidal activity against methicillin-resistant Staphylococcus aureus ATCC 33591 assessed as reduction in bacterial growth; assay type: functional
Staphylococcus aureus [10] = test: Bactericidal activity against Staphylococcus aureus CGMCC1.8721 assessed as reduction in bacterial growth; assay type: functional
Staphylococcus aureus [11] = test: Bactericidal activity against methicillin-resistant Staphylococcus aureus CGMCC 1.12409 assessed as reduction in bacterial growth; assay type: functional

Row | SMILES | MIC (Staphylococcus aureus [4]) | MIC (Staphylococcus aureus [5]) | MIC (Staphylococcus aureus [6]) | MIC (Staphylococcus aureus [7]) | also measured
1 | CN[C@H](CC(C)C)C(=O)N[C@H]1C(=O)N[C@@H](CC(N)=O)C(=O)N[C@H]2C(=O)N[C@H]3C(=O)N[C@H](C(=O)N[C@H](C(=O)O)c4cc(O)cc(O)c4-c4cc3ccc4O)[C@H](O)c3ccc(c(Cl)c3)Oc3cc2cc(c3O[C@@H]2O[C@H](CO)[C@@H](O)[C@H](O)[C@H]2O[C@H]2C[C@](C)(N)[C@H](O)[C@H](C)O2)Oc2ccc(cc2Cl)[C@H]1O [VANCOMYCIN] |  |  |  |  | Activity (Staphylococcus aureus [1]): Active; Activity (Staphylococcus aureus [2]): 87%; Activity (Staphylococcus aureus [3]): inactive
2 | CCCNCc1ccc2[nH]cc(C[C@@H](C)[C@H]3CC[C@H]4[C@@H]5CC[C@@H]6C[C@H](O)CC[C@]6(C)[C@H]5CC[C@]34C)c2c1 | 32 µg/mL (≈ 63.4 µM) | 32 µg/mL (≈ 63.4 µM) |  |  | 
3 | C[C@H](Cc1c[nH]c2ccc(CNCCN3CCN(C)CC3)cc12)[C@H]1CC[C@H]2[C@@H]3CC[C@@H]4C[C@H](O)CC[C@]4(C)[C@H]3CC[C@]12C | 2 µg/mL (≈ 3.4 µM) | 2 µg/mL (≈ 3.4 µM) | 4 µg/mL (≈ 6.79 µM) | 4 µg/mL (≈ 6.79 µM) | 
4 | C[C@H](Cc1c[nH]c2ccc(CNCCO)cc12)[C@H]1CC[C@H]2[C@@H]3CC[C@@H]4C[C@H](O)CC[C@]4(C)[C@H]3CC[C@]12C |  | 16 µg/mL (≈ 31.6 µM) |  |  | 
5 | C[C@H](Cc1c[nH]c2ccc(CN3CCOCC3)cc12)[C@H]1CC[C@H]2[C@@H]3CC[C@@H]4C[C@H](O)CC[C@]4(C)[C@H]3CC[C@]12C | 32 µg/mL (≈ 60.1 µM) | 16 µg/mL (≈ 30 µM) |  |  | 
6 | CCCCCCCCCC(=O)N[C@@H](Cc1c[nH]c2ccccc12)C(=O)N[C@@H](CC(N)=O)C(=O)N[C@@H](CC(=O)O)C(=O)N[C@@H]1C(=O)NCC(=O)N[C@@H](CCCN)C(=O)N[C@@H](CC(=O)O)C(=O)N[C@H](C)C(=O)N[C@@H](CC(=O)O)C(=O)NCC(=O)N[C@H](CO)C(=O)N[C@@H]([C@@H](C)CC(=O)O)C(=O)N[C@@H](CC(=O)c2ccccc2N)C(=O)O[C@@H]1C |  |  |  |  | Activity (Staphylococcus aureus [3]): Active
7 | CCNCc1ccc2[nH]cc([C@H]3CC[C@H]4[C@@H]5CCc6cc(O)ccc6[C@H]5CC[C@]34C)c2c1 | 1 µg/mL (≈ 2.33 µM) | 1 µg/mL (≈ 2.33 µM) | 4 µg/mL (≈ 9.33 µM) | 4 µg/mL (≈ 9.33 µM) | MBC (Staphylococcus aureus [8]): 2 µg/mL (≈ 4.67 µM); MBC (Staphylococcus aureus [9]): 8 µg/mL (≈ 18.7 µM); MBC (Staphylococcus aureus [10]): 2 µg/mL (≈ 4.67 µM); MBC (Staphylococcus aureus [11]): 8 µg/mL (≈ 18.7 µM)
8 | CCNCc1ccc2[nH]cc([C@H]3CC[C@H]4[C@@H]5CC[C@H]6C[C@@H](O)CC[C@]6(C)[C@H]5CC[C@]34C)c2c1 | 4 µg/mL (≈ 8.91 µM) | 4 µg/mL (≈ 8.91 µM) | 8 µg/mL (≈ 17.8 µM) | 8 µg/mL (≈ 17.8 µM) | MBC (Staphylococcus aureus [8]): 8 µg/mL (≈ 17.8 µM); MBC (Staphylococcus aureus [9]): 16 µg/mL (≈ 35.7 µM); MBC (Staphylococcus aureus [10]): 8 µg/mL (≈ 17.8 µM); MBC (Staphylococcus aureus [11]): 16 µg/mL (≈ 35.7 µM)
9 | COc1ccc2[nH]cc(C[C@@H](C)[C@H]3CC[C@H]4[C@@H]5CC[C@@H]6C[C@H](O)CC[C@]6(C)[C@H]5CC[C@]34C)c2c1 | 32 µg/mL (≈ 69 µM) | 16 µg/mL (≈ 34.5 µM) | 32 µg/mL (≈ 69 µM) | 32 µg/mL (≈ 69 µM) | 
10 | C[C@H](Cc1c[nH]c2ccc(CNc3ccc(C(F)(F)F)cc3)cc12)[C@H]1CC[C@H]2[C@@H]3CC[C@@H]4C[C@H](O)CC[C@]4(C)[C@H]3CC[C@]12C | 32 µg/mL (≈ 52.7 µM) | 16 µg/mL (≈ 26.4 µM) |  | > 32 µg/mL | 
11 | CNCc1ccc2[nH]cc(C[C@@H](C)[C@H]3CC[C@H]4[C@@H]5CC[C@@H]6C[C@H](O)CC[C@]6(C)[C@H]5CC[C@]34C)c2c1 | 2 µg/mL (≈ 4.2 µM) | 2 µg/mL (≈ 4.2 µM) | 2 µg/mL (≈ 4.2 µM) | 2 µg/mL (≈ 4.2 µM) | MBC (Staphylococcus aureus [8]): 4 µg/mL (≈ 8.39 µM); MBC (Staphylococcus aureus [9]): 4 µg/mL (≈ 8.39 µM); MBC (Staphylococcus aureus [10]): 2 µg/mL (≈ 4.2 µM); MBC (Staphylococcus aureus [11]): 4 µg/mL (≈ 8.39 µM)
12 | C[C@H](Cc1c[nH]c2ccc(CN3CCNCC3)cc12)[C@H]1CC[C@H]2[C@@H]3CC[C@@H]4C[C@H](O)CC[C@]4(C)[C@H]3CC[C@]12C | 16 µg/mL (≈ 30.1 µM) | 8 µg/mL (≈ 15 µM) | 16 µg/mL (≈ 30.1 µM) | 16 µg/mL (≈ 30.1 µM) | 
13 | C[C@H](Cc1c[nH]c2ccc(CO)cc12)[C@H]1CC[C@H]2[C@@H]3CC[C@@H]4C[C@H](O)CC[C@]4(C)[C@H]3CC[C@]12C | 32 µg/mL (≈ 69 µM) | 16 µg/mL (≈ 34.5 µM) |  | 32 µg/mL (≈ 69 µM) | 
14 | C[C@H](Cc1c[nH]c2ccc(CN3CC(O)C3)cc12)[C@H]1CC[C@H]2[C@@H]3CC[C@@H]4C[C@H](O)CC[C@]4(C)[C@H]3CC[C@]12C | 8 µg/mL (≈ 15.4 µM) | 8 µg/mL (≈ 15.4 µM) | 16 µg/mL (≈ 30.8 µM) | 16 µg/mL (≈ 30.8 µM) | 
15 | COc1ccc2[nH]cc(C[C@@H](C)[C@H]3CC[C@H]4[C@@H]5[C@H](O)C[C@@H]6C[C@H](O)CC[C@]6(C)[C@H]5C[C@H](O)[C@]34C)c2c1 | 32 µg/mL (≈ 64.6 µM) | 16 µg/mL (≈ 32.3 µM) | 32 µg/mL (≈ 64.6 µM) | 32 µg/mL (≈ 64.6 µM) | 
16 | CCn1cc(C(=O)O)c(=O)c2cc(F)c(N3CCNCC3)cc21 |  |  |  |  | Activity (Staphylococcus aureus [3]): inactive
17 | C[C@H](Cc1c[nH]c2ccc(CN3CCN(C)CC3)cc12)[C@H]1CC[C@H]2[C@@H]3CC[C@@H]4C[C@H](O)CC[C@]4(C)[C@H]3CC[C@]12C |  | 16 µg/mL (≈ 29.3 µM) |  |  | 
18 | O=C(N[C@H](CO)[C@H](O)c1ccc([N+](=O)[O-])cc1)C(Cl)Cl |  |  |  |  | Activity (Staphylococcus aureus [3]): inactive
19 | COc1ccc2[nH]cc([C@H]3CC[C@H]4[C@@H]5CCc6cc(O)ccc6[C@H]5CC[C@]34C)c2c1 | 32 µg/mL (≈ 79.7 µM) | 16 µg/mL (≈ 39.8 µM) |  |  | 
20 | C[C@H](Cc1c[nH]c2ccccc12)[C@H]1CC[C@H]2[C@@H]3CC[C@@H]4C[C@H](O)CC[C@]4(C)[C@H]3CC[C@]12C |  | > 32 µg/mL |  |  | 
21 | CC1(C)S[C@@H]2[C@H](NC(=O)[C@H](N)c3ccccc3)C(=O)N2[C@H]1C(=O)O |  |  |  |  | Activity (Staphylococcus aureus [3]): inactive
22 | CC1CN(Cc2ccc3[nH]cc(C[C@@H](C)[C@H]4CC[C@H]5[C@@H]6CC[C@@H]7C[C@H](O)CC[C@]7(C)[C@H]6CC[C@]45C)c3c2)CC(C)N1 (some centres undefined) |  | 32 µg/mL (≈ 57.2 µM) |  |  | 
23 | COc1ccc2[nH]cc(C[C@@H](C)[C@H]3CC[C@H]4[C@@H]5[C@H](O)C[C@@H]6C[C@H](O)CC[C@]6(C)[C@H]5CC[C@]34C)c2c1 | 32 µg/mL (≈ 66.7 µM) | 16 µg/mL (≈ 33.4 µM) | 32 µg/mL (≈ 66.7 µM) | 32 µg/mL (≈ 66.7 µM) | 
24 | C[C@H](Cc1c[nH]c2ccc(CN3CCSCC3)cc12)[C@H]1CC[C@H]2[C@@H]3CC[C@@H]4C[C@H](O)CC[C@]4(C)[C@H]3CC[C@]12C | 16 µg/mL (≈ 29.2 µM) | 8 µg/mL (≈ 14.6 µM) | 16 µg/mL (≈ 29.2 µM) | 16 µg/mL (≈ 29.2 µM) | 
25 | C[C@H](Cc1c[nH]c2ccc(CN3CCC(O)C3)cc12)[C@H]1CC[C@H]2[C@@H]3CC[C@@H]4C[C@H](O)CC[C@]4(C)[C@H]3CC[C@]12C (some centres undefined) | 16 µg/mL (≈ 30 µM) | 8 µg/mL (≈ 15 µM) |  |  | 
26 | C[C@H](Cc1c[nH]c2ccc(CN3CCC(N4CCCC4)CC3)cc12)[C@H]1CC[C@H]2[C@@H]3CC[C@@H]4C[C@H](O)CC[C@]4(C)[C@H]3CC[C@]12C | 16 µg/mL (≈ 26.7 µM) | 16 µg/mL (≈ 26.7 µM) |  |  | 
27 | COc1ccc(NCc2ccc3[nH]cc(C[C@@H](C)[C@H]4CC[C@H]5[C@@H]6CC[C@@H]7C[C@H](O)CC[C@]7(C)[C@H]6CC[C@]45C)c3c2)cc1 | 16 µg/mL (≈ 28.1 µM) | 16 µg/mL (≈ 28.1 µM) |  |  | 
28 | COc1ccc2[nH]cc([C@H]3CC[C@H]4[C@@H]5CC[C@H]6C[C@@H](O)CC[C@]6(C)[C@H]5CC[C@]34C)c2c1 | 16 µg/mL (≈ 37.9 µM) | 16 µg/mL (≈ 37.9 µM) |  |  | 
29 | C[C@H](Cc1c[nH]c2ccc(CNCCCl)cc12)[C@H]1CC[C@H]2[C@@H]3CC[C@@H]4C[C@H](O)CC[C@]4(C)[C@H]3CC[C@]12C |  | 32 µg/mL (≈ 60.9 µM) |  |  | 
